Reference: ChEMBL document CHEMBL1201862, “PubChem BioAssay data set” (2004)
Active and inactive are the calls of the source.

Key:
[1] = molecular target: T1, Fructose-bisphosphate aldolase (Mycobacterium tuberculosis, UniProt P9WQA3); test: Fluorescence-based biochemical high throughput dose response assay for inhibitors of the fructose-bisphosphate aldolase (FBA) of M. tuberculosis.; type: functional
T1 sequence (P9WQA3 whole entry): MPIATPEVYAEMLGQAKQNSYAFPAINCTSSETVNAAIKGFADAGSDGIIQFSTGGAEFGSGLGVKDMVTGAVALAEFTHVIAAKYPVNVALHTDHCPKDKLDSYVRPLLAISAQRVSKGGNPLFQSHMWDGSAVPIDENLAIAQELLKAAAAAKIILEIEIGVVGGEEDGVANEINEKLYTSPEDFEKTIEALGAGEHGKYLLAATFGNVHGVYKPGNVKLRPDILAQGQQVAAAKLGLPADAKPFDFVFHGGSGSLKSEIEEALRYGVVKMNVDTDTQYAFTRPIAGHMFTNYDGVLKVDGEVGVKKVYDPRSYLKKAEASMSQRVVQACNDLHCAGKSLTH

[2] = molecular target: T2, Adenosylmethionine-8-amino-7-oxononanoate aminotransferase (Mycobacterium tuberculosis, UniProt P9WQ81); test: Mycobacterium tuberculosis BioA enzyme inhibitor Measured in Biochemical System Using Plate Reader - 2163-02_Inhibitor_Dose_CherryPick_Activity.; type: functional, Mycobacterium tuberculosis UT205
T2 sequence (P9WQ81 whole entry): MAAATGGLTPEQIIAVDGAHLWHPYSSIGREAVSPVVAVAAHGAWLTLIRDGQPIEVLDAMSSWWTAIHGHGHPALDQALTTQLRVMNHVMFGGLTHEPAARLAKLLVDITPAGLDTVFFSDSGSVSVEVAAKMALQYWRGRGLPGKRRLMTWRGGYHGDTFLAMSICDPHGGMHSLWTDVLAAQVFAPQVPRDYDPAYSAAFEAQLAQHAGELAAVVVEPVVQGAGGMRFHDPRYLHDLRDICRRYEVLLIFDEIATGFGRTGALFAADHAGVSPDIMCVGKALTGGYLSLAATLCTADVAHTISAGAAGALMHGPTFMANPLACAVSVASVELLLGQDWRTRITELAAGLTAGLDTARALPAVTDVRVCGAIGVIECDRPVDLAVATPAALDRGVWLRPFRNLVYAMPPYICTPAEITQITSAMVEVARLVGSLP

[3] = molecular target: T3, Corticotropin-releasing factor receptor 2/Corticotropin-releasing factor-binding protein (Homo sapiens, UniProt P24387+Q13324); test: Dose Response confirmation of uHTS hits for small molecule antagonists of the CRF-binding protein and CRF-R2 receptor complex.; type: functional; conditions: read-out: IC50_Mean
T3 sequence (Q13324 whole entry): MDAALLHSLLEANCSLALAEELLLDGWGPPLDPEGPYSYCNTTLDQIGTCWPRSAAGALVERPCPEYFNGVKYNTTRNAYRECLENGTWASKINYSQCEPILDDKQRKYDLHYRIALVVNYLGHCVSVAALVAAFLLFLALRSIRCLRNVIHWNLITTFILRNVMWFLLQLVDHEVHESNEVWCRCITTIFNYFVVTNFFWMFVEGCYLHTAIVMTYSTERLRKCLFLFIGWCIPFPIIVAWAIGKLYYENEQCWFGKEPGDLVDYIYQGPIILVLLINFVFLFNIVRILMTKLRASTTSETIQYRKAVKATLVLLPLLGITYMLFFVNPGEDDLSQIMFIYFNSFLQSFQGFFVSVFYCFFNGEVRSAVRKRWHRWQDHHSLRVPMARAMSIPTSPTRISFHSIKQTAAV
T3 sequence (P24387 whole entry): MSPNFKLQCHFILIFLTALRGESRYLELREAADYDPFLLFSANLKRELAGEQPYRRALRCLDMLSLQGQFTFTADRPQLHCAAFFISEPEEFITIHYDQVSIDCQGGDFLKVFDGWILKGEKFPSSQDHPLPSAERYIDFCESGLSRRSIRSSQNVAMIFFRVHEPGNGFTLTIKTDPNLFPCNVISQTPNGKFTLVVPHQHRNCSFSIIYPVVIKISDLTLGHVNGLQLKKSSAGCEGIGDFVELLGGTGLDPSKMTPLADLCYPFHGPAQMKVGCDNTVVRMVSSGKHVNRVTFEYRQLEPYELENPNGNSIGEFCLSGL

[4] = molecular target: T3, Corticotropin-releasing factor receptor 2/Corticotropin-releasing factor-binding protein; test: activators of CRF receptor 2 with binding protein – uHTS hits, confirmation (AID 602473); type: functional; conditions: read-out: EC50_Mean
[5] = blockers of CRF-binding protein–CRF-R2 complex – cell-based, uHTS hits, 384-well, dose response (AID 651639); type: functional, Homo sapiens; conditions: read-out: IC50_Mean
[6] = molecular target: T4, Methionyl-tRNA synthetase, putative (Trypanosoma brucei brucei, UniProt Q38C91); type: functional, Trypanosoma brucei brucei strain 927/4 GUTat10.1
T4 sequence (Q38C91 whole entry): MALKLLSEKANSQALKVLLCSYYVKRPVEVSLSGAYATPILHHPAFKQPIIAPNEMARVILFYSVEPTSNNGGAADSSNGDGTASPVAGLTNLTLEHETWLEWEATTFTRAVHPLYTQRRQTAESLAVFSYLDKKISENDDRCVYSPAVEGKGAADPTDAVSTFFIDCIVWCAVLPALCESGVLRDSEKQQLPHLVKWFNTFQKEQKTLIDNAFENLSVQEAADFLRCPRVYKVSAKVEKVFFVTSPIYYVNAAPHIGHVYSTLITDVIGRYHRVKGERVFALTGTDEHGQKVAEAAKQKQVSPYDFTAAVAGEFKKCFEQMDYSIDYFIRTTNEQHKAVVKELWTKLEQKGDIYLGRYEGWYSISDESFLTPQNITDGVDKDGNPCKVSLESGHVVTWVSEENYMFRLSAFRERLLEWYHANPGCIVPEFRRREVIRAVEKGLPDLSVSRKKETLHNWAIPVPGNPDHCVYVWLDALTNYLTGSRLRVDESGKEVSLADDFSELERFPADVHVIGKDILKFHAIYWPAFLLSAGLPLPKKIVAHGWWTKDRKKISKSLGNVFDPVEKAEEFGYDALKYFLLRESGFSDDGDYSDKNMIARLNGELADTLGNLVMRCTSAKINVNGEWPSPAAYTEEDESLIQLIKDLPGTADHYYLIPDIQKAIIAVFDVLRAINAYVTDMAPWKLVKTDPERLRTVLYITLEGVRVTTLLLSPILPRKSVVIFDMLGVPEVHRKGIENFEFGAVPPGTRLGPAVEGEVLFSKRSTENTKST

[7] = Counterscreen for inhibitors of Trypanosoma brucei methionyl tRNA synthetase (MetRS): Luminescence-based cell-based high throughput dose response assay to identify compounds that are cytotoxic to Jurkat human T lymphocyte cells.; type: functional
[8] = molecular target: T4, Methionyl-tRNA synthetase, putative; type: functional, Trypanosoma brucei brucei strain 927/4 GUTat10.1; remark: listed apart in the source
[9] = Fluorescence-based cell-based high throughput dose response assay for inhibitors of the interaction of nucleotide-binding oligomerization domain containing 2 (NOD2) and the receptor-interacting serine-threonine kinase 2 (RIPK2).; type: functional, Homo sapiens

## COc1cc2c(cc1N=C(S)Nc1cccc(C)c1)oc1ccccc12
[1]
  IC50: 5.82 µM (active)

## Cc1ccccc1-n1c(SCC(=O)N(C)C2CCS(=O)(=O)C2)nc2ccccc2c1=O (stereo not drawn)
[2]
  AC50: 2.39 µM (active)

## COc1ccc(Cl)cc1NC(=O)C(C)NC(c1ccccc1)c1ccccc1 (stereo not drawn)
[3]
  IC50: 1.14 µM (active)
[4]
  EC50: > 53 µM (inactive)
[5]
  IC50: > 20 µM (inactive)

## C[C@@H]1C=C(C(=O)NCc2nc3ccccc3[nH]2)O[C@H](OCc2ccc(CO)cc2)C1
[6]
  IC50: 2.04 µM (active)
[7]
  IC50: 83.3 µM (inactive)
[8]
  IC50: 1.47 µM (active)

## CC1=CC2OC3CC4OC(=O)C=CC=CC(C(C)O)OCC(O)C(C)CC(=O)OCC2(CC1O)C4(C)C31CO1 (stereo not drawn)
[9]
  IC50: 49.8 µM (inactive)

## OC(c1cc(Cl)cc(Cl)c1)c1nc(-c2ccccc2F)c[nH]1 (stereo not drawn)
[6]
  IC50: 9.87 µM (active)
[7]
  IC50: 74.4 µM (inactive)
[8]
  IC50: 6.33 µM (active)

## N#CCC(=O)N/N=C/c1ccc(N2N=C(c3ccccc3)CC2c2ccccc2)cc1 (stereo not drawn)
[1]
  IC50: 0.198 µM (active)
